DBAASP
In brackets after ≈: the same amount, converted by molar mass.

How the values were obtained:
Assay in all cases: ≥ marks a high value that may be exact or a test limit, other limits are often not marked, values filed in µg/mL are converted to µM
[1] = system: Staphylococcus aureus IFO 12732
[2] = system: Escherichia coli IFO 12734
[3] = system: Bacillus subtilis IFO 3134
[4] = system: Pseudomonas aeruginosa IFO 12582
[5] = system: Pseudomonas syringae pv. syringae EPS 94
[6] = system: Staphylococcus aureus ATCC 25923
[7] = system: Stenotrophomonas maltophilia U8908
[8] = system: Enterococcus faecalis ATCC 29212
[9] = system: Stenotrophomonas maltophilia B32/1
[10] = system: Staphylococcus aureus 145/08
[11] = system: Staphylococcus aureus T4/6
[12] = system: Staphylococcus epidermidis RP62A/1
[13] = system: Xanthomonas arboricola pv. pruni CFBP 5563
[14] = system: Klebsiella pneumoniae ATCC 700603
[15] = system: Staphylococcus aureus 127/08
[16] = system: Pseudomonas syringae pv. actinidiae Psa3700.1.1
[17] = system: Xanthomonas fragariae Xf349-9A
[18] = system: Erwinia amylovora PMV 6076
[19] = system: Staphylococcus epidermidis T37/8
[20] = system: Escherichia coli ATCC 25726
[21] = system: Acinetobacter baumannii NM109
[22] = system: Staphylococcus aureus V4180
[23] = system: Stenotrophomonas maltophilia B6/2
[24] = system: Staphylococcus aureus 274/08
[25] = system: Acinetobacter baumannii NM35
[26] = system: Acinetobacter baumannii NM8
[27] = system: Staphylococcus epidermidis T6/19
[28] = system: Staphylococcus epidermidis RP62A
[29] = system: Acinetobacter baumannii NM75
[30] = system: Acinetobacter baumannii NM124
[31] = system: Stenotrophomonas maltophilia B5/5
[32] = system: Candida albicans ATCC 90028
[33] = system: Stenotrophomonas maltophilia B32/4
[34] = system: Pseudomonas aeruginosa ATCC 27853
[35] = system: Staphylococcus aureus S908
[36] = system: Xanthomonas campestris pv. Vesicatoria 2133-2
[37] = system: Pseudomonas aeruginosa U-31
[38] = system: Bacillus subtilis PCI 219
[39] = system: Escherichia coli NIHJ JC-2
[40] = system: Staphylococcus aureus FDA 209P
[41] = system: Candida albicans ATCC 36232
[42] = system: Staphylococcus aureus ATCC 6538
[43] = system: Pseudomonas aeruginosa ATCC 9027
[44] = system: Micrococcus luteus ATCC 9341
[45] = system: Escherichia coli ATCC 2592
[46] = system: Staphylococcus aureus
[47] = system: Proteus vulgaris ATCC 6380
[48] = system: Staphylococcus epidermidis
[49] = system: Staphylococcus aureus A170
[50] = system: Escherichia coli W160-37

CC[C@H](C)[C@H](NC(=O)[C@H](C)NC(=O)[C@@H]1CCCN1C(=O)[C@@H](NC(=O)[C@@H](NC(=O)[C@H](Cc1cnc[nH]1)NC(=O)[C@H](C)NC(=O)[C@H](C)NC(=O)[C@@H](NC(=O)[C@H](CCCCN)NC(=O)[C@H](C)NC(=O)[C@H](CC(C)C)NC(=O)[C@@H](NC(=O)CNC(=O)[C@H](Cc1ccccc1)NC(=O)[C@H](C)N)C(C)C)C(C)C)C(C)C)C(C)C)C(=O)N[C@@H](C)C(=O)N[C@@H](CCC(=O)O)C(=O)N[C@@H](Cc1cnc[nH]1)C(=O)N[C@@H](Cc1ccccc1)C(N)=O [AFGVLAKVAAHVVPAIAEHF]
MIC [1]: ≥ 64 µM | MIC [2]: ≥ 64 µM | MIC [3]: ≥ 64 µM | MIC [4]: ≥ 64 µM

CC[C@H](C)[C@H](NC(=O)[C@H](C)NC(=O)[C@H](CCCCN)NC(=O)CNC(=O)[C@@H](NC(=O)[C@H](Cc1cnc[nH]1)NC(=O)CNC(=O)[C@H](CC(C)C)NC(=O)[C@H](CC(C)C)NC(=O)[C@@H](NC(=O)CNC(=O)[C@@H](NC(=O)[C@H](CC(C)C)NC(=O)CN)C(C)C)[C@@H](C)O)[C@@H](C)CC)C(=O)N[C@@H](CC(C)C)C(=O)N[C@@H](CO)C(N)=O [GLVGTLLGHIGKAILS]
MIC [5]: ≥ 50 µM | MIC [6]: 16 µM (≈ 24.8 µg/mL) | MIC [7]: ≥ 62.5 µM | MIC [8]: 62.5 µM (≈ 96.7 µg/mL) | MIC [9]: ≥ 62.5 µM | MIC [10]: 16 µM (≈ 24.8 µg/mL) | MIC [11]: 16 µM (≈ 24.8 µg/mL) | MIC [12]: 8 µM (≈ 12.4 µg/mL) | MIC [13]: 8.8 µM (≈ 13.6 µg/mL) | MIC [14]: 250 µM (≈ 387 µg/mL) | MIC [15]: 8 µM (≈ 12.4 µg/mL) | MIC [16]: ≥ 50 µM | MIC [17]: ≥ 35.4 µM | MIC [18]: ≥ 35.4 µM | MIC [19]: 16 µM (≈ 24.8 µg/mL) | MIC [20]: ≥ 125 µM | MIC [21]: ≥ 125 µM | MIC [22]: 16 µM (≈ 24.8 µg/mL) | MIC [23]: 31.3 µM (≈ 48.4 µg/mL) | MIC [24]: 16 µM (≈ 24.8 µg/mL) | MIC [25]: ≥ 125 µM | MIC [26]: ≥ 125 µM | MIC [27]: 8 µM (≈ 12.4 µg/mL) | MIC [28]: 16 µM (≈ 24.8 µg/mL) | MIC [29]: ≥ 62.5 µM | MIC [30]: ≥ 125 µM | MIC [31]: ≥ 62.5 µM | MIC [32]: ≥ 62.5 µM | MIC [33]: ≥ 62.5 µM | MIC [34]: 250 µM (≈ 387 µg/mL) | MIC [35]: 16 µM (≈ 24.8 µg/mL) | MIC [36]: 8.8 µM (≈ 13.6 µg/mL)

CC(C)C[C@H](NC(=O)[C@H](CCCCN)NC(=O)[C@H](CCCCN)NC(=O)[C@H](CC(C)C)NC(=O)[C@H](CC(C)C)NC(=O)[C@H](CCCCN)NC(=O)[C@H](CCCCN)NC(=O)[C@H](Cc1c[nH]c2ccccc12)NC(=O)[C@H](CC(C)C)NC(=O)[C@H](CCCCN)NC(=O)[C@H](CC(C)C)NC(=O)[C@H](CC(C)C)NC(=O)[C@H](CCCCN)NC(=O)[C@H](CCCCN)NC(=O)[C@H](CC(C)C)NC(=O)[C@H](CC(C)C)NC(=O)[C@@H](N)CCCCN)C(=O)N[C@@H](CCCCN)C(=O)O [KLLKKLLKLWKKLLKKLK]
MIC [37]: ≥ 44.2 µM | MIC [38]: ≥ 44.2 µM | MIC [39]: ≥ 44.2 µM | MIC [40]: ≥ 44.2 µM

CC[C@H](C)[C@H](NC(=O)[C@H](CCCCN)NC(=O)[C@@H]1CCCN1C(=O)[C@H](CC(C)C)NC(=O)[C@H](Cc1ccccc1)NC(=O)[C@H](CC(N)=O)NC(=O)[C@H](C)NC(=O)[C@H](C)NC(=O)[C@H](CC(C)C)NC(=O)CNC(=O)[C@H](C)NC(=O)[C@H](CC(C)C)NC(=O)[C@@H](N)CC(C)C)C(=O)N[C@@H](Cc1ccccc1)C(=O)N[C@@H](CS)C(=O)N[C@@H](CCCCN)C(=O)N[C@H](C(=O)N[C@H](C(=O)N[C@@H](CCCN=C(N)N)C(=O)N[C@@H](CCCCN)C(=O)N[C@@H](CS)C(N)=O)[C@@H](C)O)[C@@H](C)CC [LLAGLAANFLPKIFCKITRKC]
MIC [41]: 2.69 µM (≈ 6.25 µg/mL) | MIC [42]: 5.39 µM (≈ 12.5 µg/mL) | MIC [43]: 5.39 µM (≈ 12.5 µg/mL) | MIC [44]: 2.69 µM (≈ 6.25 µg/mL) | MIC [45]: 5.39 µM (≈ 12.5 µg/mL) | MIC [46]: 10.8 µM (≈ 25 µg/mL) | MIC [47]: ≥ 43.1 µM

CC[C@H](C)[C@H](NC(=O)[C@@H]1CCCN1C(=O)[C@H](CC(C)C)NC(=O)[C@@H](N)CC(C)C)C(=O)N[C@H](C(=O)N[C@H](C(=O)N[C@@H](CC(N)=O)C(=O)N[C@@H](CC(C)C)C(=O)N[C@@H](CC(C)C)C(=O)N[C@@H](CCCCN)C(=O)N[C@@H](CO)C(=O)N[C@@H](CC(C)C)C(=O)N[C@@H](CC(C)C)C(=O)O)C(C)C)C(C)C [LLPIVVNLLKSLL]
MIC [48]: 13.9 µM (≈ 20 µg/mL) | MIC [49]: 6.97 µM (≈ 10 µg/mL)

CC[C@H](C)[C@H](NC(=O)[C@H](Cc1c[nH]c2ccccc12)NC(=O)[C@H](CCCCN)NC(=O)[C@H](CO)NC(=O)[C@H](CC(C)C)NC(=O)[C@H](Cc1ccccc1)NC(=O)[C@@H](NC(=O)[C@H](CCCCN)NC(=O)[C@H](CC(C)C)NC(=O)[C@H](CCCCN)NC(=O)[C@@H]1CCCN1)[C@@H](C)O)C(=O)NCC(=O)O [PKLKTFLSKWIG]
MIC [50]: ≥ 107 µM | MIC [46]: 107 µM (≈ 152 µg/mL)
